This note sets out measurements from article PMC9728198, “Characterization of Two Self-Sufficient Monooxygenases, CYP102A15 and CYP102A170, as Long-Chain Fatty Acid Hydroxylases” (Journal of Microbiology and Biotechnology, 2020).

Several values for one entry are separate records, joined by “and”; a condition that tells them apart may be missing. Identical values can stand only once. Like-named read-outs stand apart in the source and are kept apart here.

Data set [1] has as its target T1, CYP102A15 (Bacillus sp. (in: firmicutes), UniProt A0A2S1UG59). The experiment in a line: NADPH consumption assay and kinetic parameters. The conditions noted are these: for CE (coupling efficiency) / PFR (product formation rate) / Km: CYP102A15; for Km: read-out: Km (Michaelis–Menten constant).
Protocol: (§1) The NADPH consumption assay was performed at 340 nm. […] The total volume of the reaction was 250 μl. The obtained data were analyzed using GraphPad Prism software, and experiments were replicated at least three times.
(§2) Saturated fatty acids, unsaturated fatty acids and other cyclic compounds were the three main types of substrates used to determine the NADPH oxidation rate. […] The coupling efficiencies, product formation rates (PFR), and Michaelis–Menten constants (Km) of CYP102A15 and CYP102A170 were also investigated.
The target in data set [2] is T1, CYP102A15. Kind of data set: Spectral substrate binding titration (low-spin to high-spin Soret shift).
Protocol: (§3) The binding affinity was evaluated by spectrometrically analyzing the enzyme binding of each substrate.
(§4) At the beginning, substrates were selected as fatty acids with different chain lengths and the unsaturation extent was tested for enzyme binding capacity. Substrate binding was observed by alternating from low-spin heme iron with a Soret band maximum at 419 nm in the UV-visible spectrum to high-spin heme iron with a Soret band maximum at 389 nm (Figs. 4, S3, and S4).
In data set [3] the target is T2, CYP102A170 (Paenibacillus sp., UniProt A0A2U8SZJ5). Described as above.
T2 sequence (A0A2U8SZJ5 1-1057 limits assumed): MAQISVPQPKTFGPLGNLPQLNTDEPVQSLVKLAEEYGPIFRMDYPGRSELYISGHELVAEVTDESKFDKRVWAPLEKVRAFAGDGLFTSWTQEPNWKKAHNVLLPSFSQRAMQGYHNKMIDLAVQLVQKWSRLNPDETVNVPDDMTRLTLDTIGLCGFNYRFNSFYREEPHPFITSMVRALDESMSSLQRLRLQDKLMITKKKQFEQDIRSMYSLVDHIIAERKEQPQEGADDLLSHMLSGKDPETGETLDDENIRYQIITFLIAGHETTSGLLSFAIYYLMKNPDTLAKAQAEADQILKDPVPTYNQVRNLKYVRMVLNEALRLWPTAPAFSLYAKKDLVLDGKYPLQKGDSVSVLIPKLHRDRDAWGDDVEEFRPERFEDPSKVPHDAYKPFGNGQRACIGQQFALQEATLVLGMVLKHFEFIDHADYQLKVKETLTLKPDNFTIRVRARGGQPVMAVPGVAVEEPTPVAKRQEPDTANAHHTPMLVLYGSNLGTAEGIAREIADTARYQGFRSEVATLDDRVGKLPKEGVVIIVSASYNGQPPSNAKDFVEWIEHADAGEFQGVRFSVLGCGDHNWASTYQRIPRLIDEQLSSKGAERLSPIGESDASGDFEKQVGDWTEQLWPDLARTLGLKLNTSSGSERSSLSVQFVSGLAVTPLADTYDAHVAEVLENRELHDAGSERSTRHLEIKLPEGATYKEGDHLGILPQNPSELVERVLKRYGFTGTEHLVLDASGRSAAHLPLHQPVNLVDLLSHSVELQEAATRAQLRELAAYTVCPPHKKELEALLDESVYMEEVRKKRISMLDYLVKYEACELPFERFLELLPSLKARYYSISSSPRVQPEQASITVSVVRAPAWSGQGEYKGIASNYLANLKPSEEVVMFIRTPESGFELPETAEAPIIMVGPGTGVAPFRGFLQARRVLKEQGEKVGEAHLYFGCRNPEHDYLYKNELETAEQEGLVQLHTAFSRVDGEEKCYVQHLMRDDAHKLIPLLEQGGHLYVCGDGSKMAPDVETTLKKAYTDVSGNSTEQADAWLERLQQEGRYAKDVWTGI
Protocol: as §3, §4
In data set [4] the target is T2, CYP102A170. Kind of data set: NADPH consumption assay and kinetic parameters. The conditions noted are these: for Km: read-out: Km (Michaelis–Menten constant).
Protocol: as §1, §2
Data set [5] concerns the target T2, CYP102A170.
Protocol: as §1, §2
The subject of data set [6] is CCCCCCCCCCCCCC(=O)O. The experiment in a line: purified protein, by the assay type.
Protocol: as §1, §2
[7] abbreviates: read-out: Kd (dissociation constant), CYP102A170, single-binding model for spectral change ΔA (A390–A420), 1 μM of protein.
Where [8] appears, read: read-out: Kd (dissociation constant), CYP102A15, single-binding model for spectral change ΔA (A389–A419), 1 μM of protein.

T1 sequence (A0A2S1UG59 1-1047): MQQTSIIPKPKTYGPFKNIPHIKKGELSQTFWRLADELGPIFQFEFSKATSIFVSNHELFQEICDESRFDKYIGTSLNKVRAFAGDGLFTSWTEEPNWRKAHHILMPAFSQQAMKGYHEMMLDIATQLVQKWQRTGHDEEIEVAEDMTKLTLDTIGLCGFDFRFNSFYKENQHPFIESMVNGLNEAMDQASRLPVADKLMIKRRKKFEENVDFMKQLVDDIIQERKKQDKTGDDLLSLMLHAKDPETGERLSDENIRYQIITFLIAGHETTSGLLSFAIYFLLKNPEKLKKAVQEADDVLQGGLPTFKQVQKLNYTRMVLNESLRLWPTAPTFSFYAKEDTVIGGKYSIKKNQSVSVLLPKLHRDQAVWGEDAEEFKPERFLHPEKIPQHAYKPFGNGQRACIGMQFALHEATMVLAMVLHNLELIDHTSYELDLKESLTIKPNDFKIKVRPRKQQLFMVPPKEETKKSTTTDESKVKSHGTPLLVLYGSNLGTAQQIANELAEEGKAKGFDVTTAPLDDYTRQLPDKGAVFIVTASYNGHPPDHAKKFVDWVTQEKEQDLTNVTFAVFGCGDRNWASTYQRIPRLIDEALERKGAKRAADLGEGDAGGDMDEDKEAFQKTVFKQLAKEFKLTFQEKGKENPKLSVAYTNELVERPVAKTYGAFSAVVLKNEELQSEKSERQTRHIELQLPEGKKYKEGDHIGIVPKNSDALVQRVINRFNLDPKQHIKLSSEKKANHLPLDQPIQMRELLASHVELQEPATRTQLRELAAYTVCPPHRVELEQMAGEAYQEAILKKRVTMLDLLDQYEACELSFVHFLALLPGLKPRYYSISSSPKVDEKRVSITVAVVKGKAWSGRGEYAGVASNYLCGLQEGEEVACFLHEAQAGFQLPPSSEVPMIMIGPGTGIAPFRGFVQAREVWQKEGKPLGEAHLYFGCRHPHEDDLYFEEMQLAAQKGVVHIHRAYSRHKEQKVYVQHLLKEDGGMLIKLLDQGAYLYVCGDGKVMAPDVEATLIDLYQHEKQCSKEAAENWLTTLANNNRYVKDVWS

As for `CCOc1ccc2ccc(=O)oc2c1` [7-ethoxycoumarin], in data set [1] (data not shown, sentence does not name the enzyme, b46 names CYP102A15), the “NADPH consumption with cyclic compounds (in words)” value is “consumed the NADPH”.
As to `CCCCC/C=C\C/C=C\C/C=C\C/C=C\CCCC(=O)O` [Arachidonic acid], the Kd in data set [2] amounted to 29.8 ± 1.8 µM.
Consider `CC/C=C\C/C=C\C/C=C\C/C=C\C/C=C\CCCC(=O)O` [Eicosapentaenoic acid], for which the equilibrium dissociation constant (Kd) in data set [3] was 1.3 ± 0.08 µM; in data set [2] it was 18.8 ± 3.8 µM.
For the molecule `CCCCCCCCCCCC(=O)O` [Lauric acid], the “CE (coupling efficiency)” value was 90% in data set [1] and 72% in data set [5]. Further, the “PFR (product formation rate)” value in data set [1] turned out to be 7.00 ± 0.10 nmol/ nmol-P450/min; in data set [4], 31.68 ± 0.70 nmol/ nmol-P450/min. The Km came to 21.7 ± 3.6 µM in data set [1] and 13.4 ± 1.3 µM in data set [4]. Moreover, the equilibrium dissociation constant (Kd) in data set [3] (setting [7]) was determined as 6.46 ± 0.3 µM; in data set [2] (setting [8]) it was 7.78 ± 0.7 µM.
Take `CCCCC/C=C\C/C=C\CCCCCCCC(=O)O` [Linoleic acid]: in data set [1], the “CE (coupling efficiency)” value amounted to 68%, the “PFR (product formation rate)” value was determined as 2.70 ± 0.30 nmol/ nmol-P450/min and the Km turned out to be 15.3 ± 4.7 µM. Besides, the Kd in data set [3] stood at 1.36 ± 0.23 µM. Besides, the dissociation constant (Kd) in data set [2] was determined as 13.9 ± 1.5 µM.
In the case of `CCCCCCCCCCCCCCCCC(=O)O` [Margaric acid], the NADPH consumption rate in data set [4] (250 μM NADPH, 200 μM fatty acid, 0.5–1 μM enzyme, 340 nm) is on record as 8.2 nmol/nmol-CYP/min. Also, the dissociation constant Kd in data set [3] (setting [7]) amounted to 2.83 ± 0.17 µM; in data set [2] (setting [8]), 17.9 ± 1.21 µM.
Consider `CCCCCCCCCCCCCC(=O)O` [Myristic acid], for which the figures for the “CE (coupling efficiency)” value in data set [1] and in data set [4] were 80% and 67%, respectively. Besides, the “PFR (product formation rate)” value in data set [1] turned out to be 35.91 ± 1.20 nmol/ nmol-P450/min; in data set [4], 37.52 ± 1.90 nmol/ nmol-P450/min. The Kd in data set [3] stood at 9.89 ± 0.39 µM; in data set [2], 14.9 ± 0.68 µM.
Turning to `CCCCCCCC/C=C\CCCCCCCC(=O)O` [Oleic acid], the entries for the “CE (coupling efficiency)” value in data set [1] and in data set [5] were 85% and 51%, respectively. Besides, the “PFR (product formation rate)” value in data set [1] is given as 23.10 ± 5.30 nmol/ nmol-P450/min; in data set [4], 41.50 ± 1.30 nmol/ nmol-P450/min. Besides, the Km in data set [1] worked out at 39.1 ± 6.9 µM; in data set [4], 430 ± 98 µM. The Kd in data set [3] was 2.23 ± 0.09 µM; in data set [2], 25.7 ± 2.8 µM.
On to `CCCCCCCCCCCCCCCC(=O)O` [Palmitic acid], for which the Kd in data set [3] is 5.01 ± 0.23 µM; in data set [2] it was 11 ± 1.3 µM.
In the case of `CCCCCCCCCCCCCCCCCC(=O)O` [Stearic acid], in data set [3], the Kd was 3.37 ± 0.2 µM.
On to “CYP102A15 (Bacillus sp. (in: firmicutes))”, for which the Km in data set [6] (other: CYP102A15) is 386.10 ± 39.20 µM.
As to CYP102A170 (Paenibacillus sp.), in data set [6] (other: CYP102A170), the Michaelis constant (Km) was 17.4 µM and 17.43 ± 1.80 µM.
